Where “and” joins values, the source holds several entries; their conditions need not be identical. Identical values can stand only once. Like-named read-outs stand apart in the source and are kept apart here.
What was measured:
[1] = test system: HCAR2 N86L; assay: cAMP assay, homology-mutated HCAR2 at residue 86 (N86L); assay type: cell-based, human
Method: The cAMP levels were quantified using the cAMP-Gi kit from Perkin Elmer (model TRF0263), adhering to the manufacturer’s guidelines. […] After 36 hours, the cells, once rinsed with PBS, were treated with a stimulation buffer,including 500 μM IBMX, and incubated for 30 min in a 384-well plate maintained at 37 °C, with a seeding density of 4,000 cells per well. This step was followed by the addition of 12 μM forskolin to each well, with the incubation continuing for an additional 45 min at the same temperature. Subsequently, each well received 5 μL of the cAMP Eu-cryptate solution and the anti-cAMP-d2 solution, and the mixture was incubated for 1 hour at room temperature [45]. […] The acquired data were analyzed using GraphPad Prism version 9.0, with statistical significance set at p < 0.05. All experimental procedures were replicated three times to ensure accuracy.

[2] = test system: HCAR3; settings: cited from earlier work; for higher affinity to HCAR3 than to HCAR2: HCAR3 vs HCAR2; for affinity difference to HCAR3 compared to HCAR2: previously reported
[3] = target: T1, wild-type HCAR3 (Homo sapiens, UniProt P49019); assay: Surface plasmon resonance measurement (Biacore X100), wild-type HCAR3; assay type: binding; settings: 6O, PLA, IBC293, acifran compared
T1 construct: expression of the entire length of human HCAR3 and HCAR2 proteins; FLAG (N); 3C protease cleavage site (N); His (C); made in house

[4] = test system: wild-type HCAR2; assay type: binding, human; design: SPR sensorgram response, Acifran-HCAR2: unit not given here
[5] = target: T2, wild-type HCAR2 (Homo sapiens, UniProt Q8TDS4); assay type: binding; design: SPR sensorgram response, Acifran-HCAR2: unit not given here
T2 construct: expression of the entire length of human HCAR3 and HCAR2 proteins; FLAG (N); 3C protease cleavage site (N); His (C); made in house

[6] = target: T3, HCAR3 R111A (Homo sapiens, UniProt P49019, R111A); assay: cAMP assay, HCAR3 R111A mutant; assay type: cell-based; settings: HCAR3 R111A vs WT
T3 construct: Full-length variants of HCAR3 and HCAR2, including specific point mutations, were incorporated into pcDNA3.1 vectors; FLAG; expressed in transfected cells
T3 sequence (P49019 whole entry R111A): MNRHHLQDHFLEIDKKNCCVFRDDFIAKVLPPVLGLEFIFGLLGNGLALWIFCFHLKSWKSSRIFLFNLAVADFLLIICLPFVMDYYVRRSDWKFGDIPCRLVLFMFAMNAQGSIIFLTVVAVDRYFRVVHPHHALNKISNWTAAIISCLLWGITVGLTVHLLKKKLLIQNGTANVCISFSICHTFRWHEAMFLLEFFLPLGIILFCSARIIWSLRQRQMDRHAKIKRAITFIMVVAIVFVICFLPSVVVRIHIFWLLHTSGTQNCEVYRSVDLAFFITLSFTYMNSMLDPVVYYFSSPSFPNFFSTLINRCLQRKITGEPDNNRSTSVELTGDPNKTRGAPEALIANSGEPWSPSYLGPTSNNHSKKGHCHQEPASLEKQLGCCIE
Method: Full-length variants of HCAR3 and HCAR2, including specific point mutations, were incorporated into pcDNA3.1 vectors for conducting cAMP assays. The cAMP levels were quantified using the cAMP-Gi kit from Perkin Elmer (model TRF0263), adhering to the manufacturer’s guidelines. […] Cells were transiently transfected with either wild-type or mutant HCAR3 plasmids (at a dosage of 500 ng per well in a 24-well format) using Lipofectamine 3000 (Invitrogen). After 36 hours, the cells, once rinsed with PBS, were treated with a stimulation buffer,including 500 μM IBMX, and incubated for 30 min in a 384-well plate maintained at 37 °C, with a seeding density of 4,000 cells per well. This step was followed by the addition of 12 μM forskolin to each well, with the incubation continuing for an additional 45 min at the same temperature. Subsequently, each well received 5 μL of the cAMP Eu-cryptate solution and the anti-cAMP-d2 solution, and the mixture was incubated for 1 hour at room temperature [45]. Fluorescence readings at 620/665 nm were then gathered using a multimode plate reader (Perkin Elmer EnVision 2105) [46]. The acquired data were analyzed using GraphPad Prism version 9.0, with statistical significance set at p < 0.05. All experimental procedures were replicated three times to ensure accuracy.

T2 sequence (Q8TDS4 whole entry): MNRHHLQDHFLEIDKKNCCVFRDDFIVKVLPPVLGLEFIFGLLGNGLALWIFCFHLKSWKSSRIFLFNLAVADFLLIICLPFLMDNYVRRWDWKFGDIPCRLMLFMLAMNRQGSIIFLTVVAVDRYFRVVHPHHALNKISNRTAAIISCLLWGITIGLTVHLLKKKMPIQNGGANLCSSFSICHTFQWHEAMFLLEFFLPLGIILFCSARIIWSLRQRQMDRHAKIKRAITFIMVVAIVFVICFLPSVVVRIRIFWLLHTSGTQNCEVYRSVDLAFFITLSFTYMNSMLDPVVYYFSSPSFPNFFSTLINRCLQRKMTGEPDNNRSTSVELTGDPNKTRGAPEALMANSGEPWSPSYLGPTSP
T1 sequence (P49019 whole entry): as the sequence (P49019 whole entry R111A) above, with A111R counted along it

Compound: O=C(O)c1cc(N(Cc2ccsc2)Cc2ccsc2)n[nH]1 [6O, 3-[bis(thiophen-3-ylmethyl)amino]-1H-pyrazole-5-carboxylic acid]
- cAMP response (normalized) ([1]; 6O-HCAR2 N86L, log[M] -3, Fig. S14B): 75.8023 and 73.3702 and 70.1872
- cAMP response (normalized) ([1]; 6O-HCAR2 N86L, log[M] -4, Fig. S14B): 70.0938 and 69.3817 and 72.4279
- cAMP response (normalized) ([1]; 6O-HCAR2 N86L, log[M] -5, Fig. S14B): 77.2869 and 68.2771 and 76.7503
- cAMP response (normalized) ([1]; 6O-HCAR2 N86L, log[M] -6, Fig. S14B): 87.0105 and 88.7719 and 89.0756
- cAMP response (normalized) ([1]; 6O-HCAR2 N86L, log[M] -7, Fig. S14B): 92.1091 and 85.2704 and 84.4838
- cAMP response (normalized) ([1]; 6O-HCAR2 N86L, log[M] -8, Fig. S14B): 95.6219 and 96.9675 and 90.6554
- cAMP response (normalized) ([1]; 6O-HCAR2 N86L, log[M] -9, Fig. S14B): 95.5893 and 94.7012 and 97.44
- cAMP response (normalized) ([1]; 6O-HCAR2 N86L, log[M] -10, Fig. S14B): 99.7701 and 103.601 and 102.183
- higher affinity to HCAR3 than to HCAR2 [2]: at least 100 fold
- affinity difference to HCAR3 compared to HCAR2 [2]: 100- to 1,000 fold
- efficacy among the four ligands by surface plasmon resonance [3]: highest efficacy among these four ligands

Compound: CC1(c2ccccc2)OC(C(=O)O)=CC1=O (stereo not drawn) [Acifran, acifran]
- cAMP response (normalized) ([1]; Acifran-HCAR2 N86L, log[M] -3, Fig. S12E): 51.1208 and 61.7941 and 63.8756
- cAMP response (normalized) ([1]; Acifran-HCAR2 N86L, log[M] -4, Fig. S12E): 60.2042 and 54.7738 and 52.0221
- cAMP response (normalized) ([1]; Acifran-HCAR2 N86L, log[M] -5, Fig. S12E): 64.2273 and 75.5651 and 74.1332
- cAMP response (normalized) ([1]; Acifran-HCAR2 N86L, log[M] -6, Fig. S12E): 84.0136 and 74.6749
- cAMP response (normalized) ([1]; Acifran-HCAR2 N86L, log[M] -7, Fig. S12E): 89.2308 and 93.0182
- cAMP response (normalized) ([1]; Acifran-HCAR2 N86L, log[M] -8, Fig. S12E): 92.6771 and 91.0418
- cAMP response (normalized) ([1]; Acifran-HCAR2 N86L, log[M] -9, Fig. S12E): 100.347 and 91.8401 and 97.0308
- cAMP response (normalized) ([1]; Acifran-HCAR2 N86L, log[M] -10, Fig. S12E): 103.679
- affinity difference acifran-HCAR2 vs acifran-HCAR3 [4]: ~ 100 fold
- SPR sensorgram response, Acifran-HCAR2 ([5]; acifran concentration 0.025 (unit not given), c2 value 159.6 (head printed log[M])): -15.5002
- SPR sensorgram response, Acifran-HCAR2 ([5]; acifran concentration 0.025 (unit not given), c2 value 160.6 (head printed log[M])): -15.3633
- SPR sensorgram response, Acifran-HCAR2 ([5]; acifran concentration 0.05 (unit not given), c2 value 159.6 (head printed log[M])): -16.3767
- SPR sensorgram response, Acifran-HCAR2 ([5]; acifran concentration 0.1 (unit not given), c2 value 159.6 (head printed log[M])): -16.3472
- SPR sensorgram response, Acifran-HCAR2 ([5]; acifran concentration 0.4 (unit not given), c2 value 159.6 (head printed log[M])): -15.8456

Compound: CC(C)n1nnc2cc(C(=O)O)ccc21 [IBC293, 1-propan-2-ylbenzotriazole-5-carboxylic acid]
- cAMP response (normalized) ([1]; IBC293-HCAR2 N86L, log[M] -3, Fig. S14C): 79.8778 and 75.4919 and 74.9151
- cAMP response (normalized) ([1]; IBC293-HCAR2 N86L, log[M] -4, Fig. S14C): 76.5789 and 72.1623 and 89.1848
- cAMP response (normalized) ([1]; IBC293-HCAR2 N86L, log[M] -5, Fig. S14C): 83.4897 and 75.4819 and 86.0148
- cAMP response (normalized) ([1]; IBC293-HCAR2 N86L, log[M] -6, Fig. S14C): 92.474 and 94.1647 and 90.5718
- cAMP response (normalized) ([1]; IBC293-HCAR2 N86L, log[M] -7, Fig. S14C): 100.025 and 101.905 and 97.6855
- cAMP response (normalized) ([1]; IBC293-HCAR2 N86L, log[M] -8, Fig. S14C): 96.4886 and 103.749 and 98.8962
- cAMP response (normalized) ([1]; IBC293-HCAR2 N86L, log[M] -9, Fig. S14C): 106.585 and 93.0489 and 96.2716
- cAMP response (normalized) ([1]; IBC293-HCAR2 N86L, log[M] -10, Fig. S14C): 101.501 and 101.566 and 98.9795
- effect of R111A mutation on agonist action at HCAR3 (cAMP assay) [6]: barely interfered HCAR3 activation
- higher affinity to HCAR3 than to HCAR2 [2]: at least 100 fold
- affinity difference to HCAR3 compared to HCAR2 [2]: 100- to 1,000 fold

Compound: O=C(O)C(O)Cc1ccccc1 [PLA, D-phenyllactic acid]
- cAMP response (normalized) ([1]; PLA-HCAR2 N86L, log[M] -3, Fig. S14D): 52.7872 and 58.3693 and 59.0285
- cAMP response (normalized) ([1]; PLA-HCAR2 N86L, log[M] -4, Fig. S14D): 77.5234 and 72.7009 and 60.409
- cAMP response (normalized) ([1]; PLA-HCAR2 N86L, log[M] -5, Fig. S14D): 76.3988 and 76.6951 and 70.3605
- cAMP response (normalized) ([1]; PLA-HCAR2 N86L, log[M] -6, Fig. S14D): 100.996 and 89.6375 and 92.8244
- cAMP response (normalized) ([1]; PLA-HCAR2 N86L, log[M] -7, Fig. S14D): 92.0146 and 97.7923 and 90.5493
- cAMP response (normalized) ([1]; PLA-HCAR2 N86L, log[M] -8, Fig. S14D): 94.5951 and 98.3127 and 96.313
- cAMP response (normalized) ([1]; PLA-HCAR2 N86L, log[M] -9, Fig. S14D): 99.4667 and 89.0551 and 95.4388
- cAMP response (normalized) ([1]; PLA-HCAR2 N86L, log[M] -10, Fig. S14D): 94.992 and 94.7429 and 103.357
- affinity difference to HCAR3 compared to HCAR2 [2]: 100- to 1,000 fold
